1 molecule from patent US20050171214A1, “Medicament for improving the failure of accommodation” (Fuji Chemical Industry Co., Ltd., priority 2001, published 2005) can be followed below.

Type in all cases: in vivo, human
The test system of series [1] is person having subjective symptoms of eyestrain or working for VDT operation. Nature of the series: Example 1: double-blind accommodability test with an accommodometer, test food vs control food for 4 weeks. The following applies: intake of astaxanthin for 4 consecutive weeks; difference not recognized in control group. From the text: People satisfying the following selection standards were used as subjects.
(1) A person having subjective symptoms of eyestrain or working for VDT operation, (2) 1.0 or more of both eyes in vision after correction. (3) 35-59 years old, (4) persons who do notusually take any medicines or health foods, (5) a person who can keep in compliance with all the test-related requirements and take the medical examinations stipulated by the test method.
Persons who have retinal disorders or cataracts were excluded from the subjects.
A test food with 5 mg /capsule of astaxanthin and a control food with 0 mg /capsule of astaxanthin were prepared. The test was conducted in a double-blind method.
After completion of the accommodability test for the subjects using an accommodometer by which the change in the refraction value (accommodation reaction) during moving object can be measured continuously and objectively, and accommodation abnormalities including VDT syndrome can be detected clearly.
A person in charge of the test prepared a subjects' name-list stratified by sex and the test results and handed it to a controller. The controller prepared an allocation table separating the subjects into test food group and control food group based on the name list. In addition, the controller stuck each label with a subject's name on the test food or control food according to the allocation table. […]

Series [2] deals with VDT workers. Nature of the series: Example 2: eye-accommodability (near point minus far point, D'Acomo apparatus), double-blind vs placebo. The following applies: mean ± SD, dioptres. On the procedure:
(§1) As a control, 13 persons who have not been administered astaxanthin and have not worked in a VDT operation were indicated as the A group. 26 VDT workers were divided into two groups at random. The B group (13 persons) was orally administered 5 mg of astaxanthin/day for 4 consecutive weeks while the C group (13 persons) was orally administered a placebo for 4 consecutive weeks. No significant difference was recognized in age among the three groups.
(§2) A double-blind test was conducted for the B and C groups.
Also, 26 workers were selected who had been engaged in a VDT operation for 4 hours per day, for 5 days (Monday to Friday every week) per week and for a year or more. […]
The eye-accommodability was evaluated by measurement of the near and far points.
The near point was measured with a D'Acomo apparatus (binocular opening constant point refraction near point ruler, a product of World Optical Corporation) according to the Uozato et al' method (Uozato H, Nagakawa A, Hirai H, Saishin M: A new near-point ruler using constant dioptric stimulus. Folia Ophthalmol Jpn 1988;39:1247-1248).
The far point was measured in the best-corrected refraction for each of the subjects.
The eye-accommodability (dioptres) was calculated by subtracting the far point (dioptres) from the near point (dioptres).
The data on before and after administration were analyzed statistically using a paired t-test. […]

Series [3] has as its system VDT workers. Nature of the series: Example 2: critical flicker fusion (C.F.F. tester). On the procedure: as §1, §2
(§3) Also, 26 workers were selected who had been engaged in a VDT operation for 4 hours per day, for 5 days (Monday to Friday every week) per week and for a year or more. Their eyes were better than twenty-twenty (20/20). All of them wore eyeglasses for accommodation during the VDT operation.
(§4) A double-blind test was conducted with respect to the VDT workers. The VDT workers were divided into an astaxanthin-administration group (n=13, B group) and placebo-administration group (n=13, C group). There was no difference in age among the three groups (Table 2 shown below).
(§5) An astaxanthin capsule (5 mg/capsule) was orally administrated to each of the B group subjects one time a day 30 minutes before supper.
(§6) All of these measurement items were conducted with each right eye of the subjects at a.m. 9:00-12:00 on a Saturday.
The critical flicker fusion was determined by decreasing the frequency of the signals at a constant speed using a C.F.F. tester (a product of Yagami Co., Ltd.). There was used the average value of the three times value measured by the individual eyes of the subjects.
(§7) The data on before and after administration were analyzed statistically using a paired t-test. Also, the data for the A and B groups and those for the A and C groups were measured in an unpaired test. The probability value is below 0.05 that is considered to be significant.

Series [4] deals with VDT workers. Briefly: Example 2: pattern visual evoked potentials (P100 amplitude and latency). On the procedure: as §1, §2, §3, §4, §5, §6
The pattern visual evoked potential was recorded according to the method established by the International Society for Clinical Electrophysiology of Vision to measure one positive peak strength (P100) and the latency (the difference […] between N75 peak and P100 peak).
as §7

Series [5] concerns VDT workers. Nature of the series: Example 2: eyesight at 5 m and 35 cm using a Landolt ring. The following applies: B group, 5 mg/day orally for 4 weeks. How it is done:
as §3, §4, §5
The eyesight was measured at each distance of 5 m and 35 cm using a Landolt ring.

The subject of series [6] is VDT workers. Nature of the series: Example 2: systemic side effects during 4-week administration. The conditions noted are these: B group, 5 mg/day orally for 4 weeks. How it is done:
as §1, §5

Setting [7] is: B group baseline, n = 13 eye, mean ± SD.
[8] abbreviates: B group, 5 mg/day orally for 4 weeks, n = 13 eye, mean ± SD.
Where [9] appears, read: B group, 5 mg/day orally for 4 weeks, vs before administration.

“And” between values parts separate entries of the source, which are not always exact repeats. Equal entries are not always repeated.

As to `CC1=C(/C=C/C(C)=C/C=C/C(C)=C/C=C/C=C(C)/C=C/C=C(C)/C=C/C2=C(C)C(=O)C(O)CC2(C)C)C(C)(C)CC(O)C1=O` (stereo not drawn) [astaxanthin, 3,3′-dihydroxy-β,β-carotene-4,4′-dione], the “Change of eye-accommodability, before vs after intake” value in series [1] is recorded as “increased in the test food group by a statistically significant difference”. Also, the “Accommodability (D), before administration of astaxanthin” value in series [2] (B group baseline, n = 13 eye (right eye), p<0.05 lower than non-VDT A group (3.7 ± 1.5)) came to 2.3 ± 1.4 D. Besides, the “Accommodability (D), after administration of astaxanthin” value in series [2] (B group, 5 mg astaxanthin/day orally for 4 consecutive weeks, n = 13 eye, p<0.01 vs before administration) is given as 2.8±1.6 D. For the same molecule, the “CFF (Hz), before administration of astaxanthin” value in series [3] (setting [7]) was 39.9 ± 5.3 Hz. The “CFF (Hz), after administration of astaxanthin” value in series [3] (setting [8]) is on record as 38.4 ± 4.8 Hz. Besides, the “Change of critical flicker fusion after administration” value in series [3] (setting [9]) is recorded as “did not (appreciably) change”. Also, in series [4] (setting [7]), the “PVEP-P100 Amplitude (μV), before administration of astaxanthin” value is listed as 5.8±1.7 μV and the “PVEP-P100 Latency (msec), before administration of astaxanthin” value is 102.5 ± 6.9 ms. Also, in series [4] (setting [8]), the “PVEP-P100 Amplitude (μV), after administration of astaxanthin” value came to 5.6±1.6 μV; the “PVEP-P100 Latency (msec), after administration of astaxanthin” value is 104 ± 7.4 ms and 104.8 ± 7.4 ms. Moreover, in series [4] (setting [9]), the “Change of amplitude of P100 in pattern visual evoked potentials after administration” value is “did not appreciably change” and the “Change of latency of P100 in pattern visual evoked potentials after administration” value is recorded as “did not appreciably change”. Also, the “Change of eyesight at distances of 5 m and 35 cm, before vs after administration” value in series [5] is reported as “did not appreciably change”. Moreover, the Systemic side effects entry in series [6] was “no systemic side effects were recognized”.
